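Cells were grown in 96-well plates and exposed to each compound for 48 hours at five concentrations; endpoints were interpolated linearly between bracketing concentrations, or set to the highest concentration if not reached. TGI: total growth inhibition.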
Assays:
Assay in all cases: NCI anticancer screen, dose series, 48 h
SF-268 CNS = tested on: SF-268 CNS
NCI-H522 lung = tested on: NCI-H522 lung
HCT-116 colon = tested on: HCT-116 colon
MCF7 breast = tested on: MCF7 breast
KM12 colon = tested on: KM12 colon
OVCAR-4 ovarian = tested on: OVCAR-4 ovarian
K-562 leukemia = tested on: K-562 leukemia
SF-539 CNS = tested on: SF-539 CNS
UACC-257 melanoma = tested on: UACC-257 melanoma
SK-OV-3 ovarian = tested on: SK-OV-3 ovarian
RXF 393 renal = tested on: RXF 393 renal
COLO 205 colon = tested on: COLO 205 colon
SN12C renal = tested on: SN12C renal
MDA-N = tested on: MDA-N
A498 renal = tested on: A498 renal
MDA-MB-231 breast = tested on: MDA-MB-231 breast
OVCAR-8 ovarian = tested on: OVCAR-8 ovarian
SK-MEL-28 melanoma = tested on: SK-MEL-28 melanoma
SNB-19 CNS = tested on: SNB-19 CNS
RPMI-8226 leukemia = tested on: RPMI-8226 leukemia

SMILES | TGI (SF-268 CNS) | TGI (NCI-H522 lung) | TGI (HCT-116 colon) | TGI (MCF7 breast) | TGI (KM12 colon) | TGI (OVCAR-4 ovarian) | TGI (K-562 leukemia) | TGI (SF-539 CNS) | TGI (UACC-257 melanoma) | TGI (SK-OV-3 ovarian) | TGI (RXF 393 renal) | TGI (COLO 205 colon) | TGI (SN12C renal) | TGI (MDA-N) | TGI (A498 renal) | TGI (MDA-MB-231 breast) | TGI (OVCAR-8 ovarian) | TGI (SK-MEL-28 melanoma) | TGI (SNB-19 CNS) | TGI (RPMI-8226 leukemia)
Cc1c[nH]c(C(=O)O)c1-c1cccn1-c1ccc(Cl)cc1[N+](=O)[O-] | > 100 µM | > 100 µM | > 100 µM | > 100 µM | > 100 µM | > 100 µM | > 100 µM | > 100 µM | > 100 µM | > 100 µM | > 100 µM | > 100 µM | > 100 µM | > 100 µM | > 100 µM | > 100 µM | > 100 µM | > 100 µM | – | –
O=C(/C=C/c1ccc(OCc2ccccc2)cc1)NCc1ccc(C(=O)NCCc2c[nH]c3ccccc23)cc1 | 52.4 µM | – | > 100 µM | > 100 µM | > 100 µM | > 48.4 µM | > 100 µM | 11.2 µM | > 100 µM | 44.4 µM | 24.9 µM | > 100 µM | > 100 µM | > 100 µM | > 100 µM | 61.1 µM | 31.7 µM | > 100 µM | 29.9 µM | > 100 µM
N#Cc1cc2c(cc1C#N)/C(=N\c1cccc(N)n1)N=C2Nc1cccc(N)n1 | 49.2 µM | 22.6 µM | 26.7 µM | > 100 µM | > 100 µM | – | > 100 µM | 43.2 µM | > 100 µM | 42.4 µM | – | 51.9 µM | > 100 µM | 59.6 µM | – | 40.9 µM | > 100 µM | 48.7 µM | > 100 µM | > 100 µM
O=C1c2c(ccc3c2CCC3)CC1Cc1ccc2c(c1)CCC2 (stereo unspecified) | > 100 µM | – | 47.2 µM | 96.6 µM | > 100 µM | 85.4 µM | 80.1 µM | > 100 µM | 61.9 µM | > 100 µM | 69.1 µM | 51.4 µM | > 100 µM | > 100 µM | > 100 µM | 49 µM | > 100 µM | > 100 µM | > 100 µM | 53.1 µM
Cc1ccc(S(=O)(=O)N2CCCSCCSCCCN(S(=O)(=O)c3ccc(C)cc3)CC2)cc1 | > 100 µM | – | > 100 µM | > 100 µM | > 100 µM | > 100 µM | – | > 100 µM | > 100 µM | > 100 µM | > 100 µM | > 100 µM | > 100 µM | > 100 µM | > 100 µM | > 100 µM | > 100 µM | > 100 µM | > 100 µM | > 100 µM
c1csc(-c2nccc3c2[nH]c2ccccc23)c1 | 56.7 µM | 41.5 µM | 31.8 µM | 20.8 µM | 34.4 µM | 55.1 µM | 63.8 µM | 32 µM | 35.7 µM | 41.5 µM | 36.1 µM | 28.9 µM | 38.8 µM | 35.4 µM | 33.9 µM | 48.1 µM | 42.8 µM | 43 µM | > 100 µM | –
O=C1c2c(O)cc(O)cc2C(C2OC(CO)C(O)C(O)C2O)c2cc(CO)cc(O)c21 (stereo unspecified) | > 100 µM | – | > 100 µM | > 100 µM | – | > 100 µM | > 100 µM | – | > 100 µM | > 100 µM | – | > 100 µM | > 100 µM | > 100 µM | > 100 µM | > 100 µM | > 100 µM | > 100 µM | > 100 µM | > 100 µM
O=C1C2=Cc3ccccc3OC2(O)Oc2ccccc21 (stereo unspecified) | > 100 µM | – | > 100 µM | > 100 µM | > 100 µM | > 100 µM | > 100 µM | > 100 µM | > 100 µM | > 100 µM | > 100 µM | > 100 µM | > 100 µM | > 100 µM | > 100 µM | > 100 µM | > 100 µM | > 100 µM | – | > 100 µM
COc1cc2oc(=O)cc(C)c2c(OC)c1O | > 100 µM | – | > 100 µM | > 100 µM | > 100 µM | > 100 µM | > 100 µM | > 100 µM | > 100 µM | > 100 µM | – | > 100 µM | > 100 µM | > 100 µM | 94.8 µM | > 100 µM | > 100 µM | > 100 µM | > 100 µM | > 100 µM
CNCCN[C@@H]1c2cc3c(cc2[C@@H](c2cc(OC)c(O)c(OC)c2)[C@H]2C(=O)OC[C@@H]21)OCO3 | > 25.6 µM | 1.93 µM | 5.27 µM | > 53.3 µM | 4.47 µM | > 100 µM | > 100 µM | 0.167 µM | 7.61 µM | 1.52 µM | 0.747 µM | 12 µM | 0.793 µM | 3.26 µM | – | 2.71 µM | 2.22 µM | 3.31 µM | 11.9 µM | 0.634 µM
